Patent US12612380B2, “Non-lysosomal glucosylceramidase inhibitors and uses thereof” (ALECTOS THERAPEUTICS INC., priority 2019, dated 2026)

Biological target: T1, GBA2 (Homo sapiens, UniProt Q9HCG7)
T1 sequence (Q9HCG7 1-927): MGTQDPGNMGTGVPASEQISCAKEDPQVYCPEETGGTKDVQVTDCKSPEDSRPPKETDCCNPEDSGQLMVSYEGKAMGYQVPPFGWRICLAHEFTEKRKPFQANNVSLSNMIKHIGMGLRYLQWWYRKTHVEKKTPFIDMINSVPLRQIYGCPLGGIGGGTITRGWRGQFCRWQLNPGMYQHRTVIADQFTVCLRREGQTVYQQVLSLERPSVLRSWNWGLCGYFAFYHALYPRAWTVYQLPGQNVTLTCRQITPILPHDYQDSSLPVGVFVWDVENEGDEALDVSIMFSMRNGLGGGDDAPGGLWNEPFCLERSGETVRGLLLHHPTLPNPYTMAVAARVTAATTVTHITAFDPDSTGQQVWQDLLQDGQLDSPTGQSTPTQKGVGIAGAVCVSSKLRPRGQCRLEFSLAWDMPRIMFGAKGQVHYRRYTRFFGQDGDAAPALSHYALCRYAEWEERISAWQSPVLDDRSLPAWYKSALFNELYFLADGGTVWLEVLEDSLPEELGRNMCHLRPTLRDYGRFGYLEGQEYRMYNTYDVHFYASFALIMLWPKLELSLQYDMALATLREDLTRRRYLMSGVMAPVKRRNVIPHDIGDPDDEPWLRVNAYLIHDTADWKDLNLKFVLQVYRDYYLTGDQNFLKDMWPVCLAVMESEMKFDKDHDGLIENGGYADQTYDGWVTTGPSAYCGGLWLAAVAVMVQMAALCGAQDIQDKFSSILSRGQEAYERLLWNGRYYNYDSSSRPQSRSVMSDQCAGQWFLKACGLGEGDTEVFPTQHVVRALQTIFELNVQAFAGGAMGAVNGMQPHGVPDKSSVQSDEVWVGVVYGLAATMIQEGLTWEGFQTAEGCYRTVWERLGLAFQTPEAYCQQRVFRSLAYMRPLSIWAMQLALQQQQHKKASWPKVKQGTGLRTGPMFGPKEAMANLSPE
Experiment: Determination of IC50 values for inhibition of GBA2 in cell lysate
Assay type: biochemical
Set-up: host or cells: HEK293T (lentiviral transduction, puromycin selection); used as cellular homogenate
Details: not given
How it was run: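 Homogenate of HEK293T cells stably overexpressing human GBA2 (0.083 mg/mL final), pretreated with 20 μM GCase inhibitor, preincubated 5 min at 37 °C with compound, then reacted 20 min with 250 μM 4-methylumbelliferyl-β-D-glucopyranoside at pH 5.5 (citrate-phosphate, 1% C10E6). Fluorescence read at 365/450 nm after alkaline stop; IC50 from log-inhibitor curve fit.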

| Compound | IC50 |
| --- | --- |
| O[C@H]1[C@H](O)[C@@H](O)CN(CCc2ccccc2)[C@@H]1CF [Example 148, (2S,3R,4R,5S)-2-(fluoromethyl)-1-phenethylpiperidine-3,4,5-triol] | 100 to 1000 nM |
| O[C@H]1[C@H](O)[C@@H](O)CN(CCc2ccccc2F)[C@@H]1CF [Example 149, (2S,3R,4R,5S)-2-(fluoromethyl)-1-(2-fluorophenethyl)piperidine-3,4,5-triol] | 100 to 1000 nM |
| CC(C)c1cc(F)c(CCN2C[C@H](O)[C@@H](O)[C@H](O)[C@H]2CF)c(F)c1 [Example 150, (2S,3R,4R,5S)-1-(2,6-difluoro-4-isopropylphenethyl)-2-(fluoromethyl)piperidine-3,4,5-triol] | < 100 nM |
| O[C@H]1[C@H](O)[C@@H](O)CN(CCc2ccc3c(c2)OCCO3)[C@@H]1CF [Example 153, (2S,3R,4R,5S)-1-(2-(2,3-dihydrobenzo[b][1,4]dioxin-6-yl)ethyl)-2-(fluoromethyl)piperidine-3,4,5-triol] | < 100 nM |
| C[C@H]1[C@@H](O)[C@H](O)[C@@H](O)CN1CCc1ccccc1F [Example 157, (2S,3R,4R,5S)-1-(2-fluorophenethyl)-2-methylpiperidine-3,4,5-triol] | 1000 to 25000 nM |
| CCCCOc1cc(F)c(CCN2C[C@H](O)[C@@H](O)[C@H](O)[C@@H]2C)c(F)c1 [Example 158, (2S,3R,4R,5S)-1-(4-butoxy-2,6-difluorophenethyl)-2-methylpiperidine-3,4,5-triol] | 100 to 1000 nM |
| O[C@H]1[C@H](O)[C@H](CF)N(CCc2ccccc2F)C[C@@H]1O [Example 159, (2R,3R,4R,5S)-2-(fluoromethyl)-1-(2-fluorophenethyl)piperidine-3,4,5-triol] | 1000 to 25000 nM |
| CCCCOc1cc(F)c(CCN2C[C@H](O)[C@@H](O)[C@H](O)[C@@H]2CF)c(F)c1 [Example 160, (2R,3R,4R,5S)-1-(4-butoxy-2,6-difluorophenethyl)-2-(fluoromethyl)piperidine-3,4,5-triol] | 100 to 1000 nM |

Same assay, conditions: cellular homogenate of HEK293T cells overexpressing human GBA2, 250 μM 4-methylumbelliferone-β-D glucopyranoside, pH 5.5, 37° C., GCase inhibitor present; read-out: GBA2 IC50

| Compound | IC50 |
| --- | --- |
| C[C@@H]1[C@@H](O)[C@H](O)[C@@H](O)CN1C[C@H]1CCN(c2ccccc2)C1 [Example 113, (2R,3R,4R,5S)-2-methyl-1-(((R)-1-phenylpyrrolidin-3-yl)methyl)piperidine-3,4,5-triol] | < 100 nM |
| C[C@@H]1[C@@H](O)[C@H](O)[C@@H](O)CN1C[C@H]1CCN(c2cc(C(F)(F)F)ccn2)C1 [Example 121, (2R,3R,4R,5S)-2-methyl-1-(((R)-1-(4-(trifluoromethyl)pyridin-2-yl)pyrrolidin-3-yl)methyl)piperidine-3,4,5-triol] | < 100 nM |
| C[C@@H]1[C@@H](O)[C@H](O)[C@@H](O)CN1C[C@H]1CCN(c2cccnc2)C1 [Example 122, (2R,3R,4R,5S)-2-methyl-1-(((R)-1-(pyridin-3-yl)pyrrolidin-3-yl)methyl)piperidine-3,4,5-triol] | 1000 to 25000 nM |
| Cc1ccncc1N1CC[C@H](CN2C[C@H](O)[C@@H](O)[C@H](O)[C@H]2C)C1 [Example 123, (2R,3R,4R,5S)-2-methyl-1-(((R)-1-(4-methylpyridin-3-yl)pyrrolidin-3-yl)methyl)piperidine-3,4,5-triol] | 100 to 1000 nM |
| C[C@@H]1[C@@H](O)[C@H](O)[C@@H](O)CN1C[C@H]1CCN(c2cnccc2C(F)(F)F)C1 [Example 124, (2R,3R,4R,5S)-2-methyl-1-(((R)-1-(4-(trifluoromethyl)pyridin-3-yl)pyrrolidin-3-yl)methyl)piperidine-3,4,5-triol] | < 100 nM |
| C[C@@H]1[C@@H](O)[C@H](O)[C@@H](O)CN1C[C@H]1CCN(c2cncc(C(F)(F)F)c2)C1 [Example 125, (2R,3R,4R,5S)-2-methyl-1-(((R)-1-(5-(trifluoromethyl)pyridin-3-yl)pyrrolidin-3-yl)methyl)piperidine-3,4,5-triol] | < 100 nM |

More lines, now with the values ahead:

| IC50 | Compound |
| --- | --- |
| < 100 nM | C[C@@H]1[C@@H](O)[C@H](O)[C@@H](O)CN1C[C@H]1CCN(c2cccnc2C(F)(F)F)C1 [Example 126, (2R,3R,4R,5S)-2-methyl-1-(((R)-1-(2-(trifluoromethyl)pyridin-3-yl)pyrrolidin-3-yl)methyl)piperidine-3,4,5-triol] |
| < 100 nM | C[C@@H]1[C@@H](O)[C@H](O)[C@@H](O)CN1C[C@H]1CCN(c2cncnc2C(F)(F)F)C1 [Example 127, (2R,3R,4R,5S)-2-methyl-1-(((R)-1-(4-(trifluoromethyl)pyrimidin-5-yl)pyrrolidin-3-yl)methyl)piperidine-3,4,5-triol] |
| < 100 nM | C[C@@H]1[C@@H](O)[C@H](O)[C@@H](O)CN1C[C@H]1CCN(c2ccsc2)C1 [Example 128, (2R,3R,4R,5S)-2-methyl-1-(((R)-1-(thiophen-3-yl)pyrrolidin-3-yl)methyl)piperidine-3,4,5-triol] |
| < 100 nM | C[C@@H]1[C@@H](O)[C@H](O)[C@@H](O)CN1C[C@H]1CCN(C(=O)c2ccc(C(F)(F)F)cc2)C1 [Example 130, (4-(trifluoromethyl)phenyl)((R)-3-(((2R,3R,4R,5S)-3,4,5-trihydroxy-2-methylpiperidin-1-yl)methyl)pyrrolidin-1-yl)methanone] |
| < 100 nM | C[C@@H]1[C@@H](O)[C@H](O)[C@@H](O)CN1C[C@@H]1CCN(c2ncccc2C(F)(F)F)C1 [Example 132, (2R,3R,4R,5S)-2-methyl-1-(((S)-1-(3-(trifluoromethyl)pyridin-2-yl)pyrrolidin-3-yl)methyl)piperidine-3,4,5-triol] |
| < 100 nM | C[C@@H]1[C@@H](O)[C@H](O)[C@@H](O)CN1C[C@@H]1CCN(c2cnccc2C(F)(F)F)C1 [Example 133, (2R,3R,4R,5S)-2-methyl-1-(((S)-1-(4-(trifluoromethyl)pyridin-3-yl)pyrrolidin-3-yl)methyl)piperidine-3,4,5-triol] |
| < 100 nM | C[C@@H]1[C@@H](O)[C@H](O)[C@@H](O)CN1C[C@@H]1CCN(c2cncnc2C(F)(F)F)C1 [Example 134, (2R,3R,4R,5S)-2-methyl-1-(((S)-1-(4-(trifluoromethyl)pyrimidin-5-yl)pyrrolidin-3-yl)methyl)piperidine-3,4,5-triol] |
| < 100 nM | C[C@@H]1[C@@H](O)[C@H](O)[C@@H](O)CN1C[C@@H]1CCN(c2nc(C(F)(F)F)cs2)C1 [Example 135, (2R,3R,4R,5S)-2-methyl-1-(((S)-1-(4-(trifluoromethyl)thiazol-2-yl)pyrrolidin-3-yl)methyl)piperidine-3,4,5-triol] |
| < 100 nM | C[C@@H]1[C@@H](O)[C@H](O)[C@@H](O)CN1C[C@@H]1CCCN(c2cccc(C(F)(F)F)n2)C1 [Example 143, (2R,3R,4R,5S)-2-methyl-1-(((S)-1-(6-(trifluoromethyl)pyridin-2-yl)piperidin-3-yl)methyl)piperidine-3,4,5-triol] |
| 100 to 1000 nM | C[C@@H]1[C@@H](O)[C@H](O)[C@@H](O)CN1C[C@@H]1CCCN(c2nc(C(F)(F)F)cs2)C1 [Example 144, (2R,3R,4R,5S)-2-methyl-1-(((S)-1-(4-(trifluoromethyl)thiazol-2-yl)piperidin-3-yl)methyl)piperidine-3,4,5-triol] |
| < 100 nM | CC(C)C1CCC(CN2C[C@H](O)[C@@H](O)[C@H](O)[C@H]2CF)CC1 (stereo partly drawn) [Example 145, (2S,3R,4R,5S)-2-(fluoromethyl)-1-((4-isopropylcyclohexyl)methyl)piperidine-3,4,5-triol] |
| < 100 nM | CC(C)(C)C1CCC(CN2C[C@H](O)[C@@H](O)[C@H](O)[C@H]2CF)CC1 (stereo partly drawn) [Example 146, (2S,3R,4R,5S)-1-((4-(tert-butyl)cyclohexyl)methyl)-2-(fluoromethyl)piperidine-3,4,5-triol] |
| < 100 nM | O[C@H]1[C@H](O)[C@@H](O)CN(CC2CCN(c3ccccc3)CC2)[C@@H]1CF [Example 154, (2S,3R,4R,5S)-2-(fluoromethyl)-1-((1-phenylpiperidin-4-yl)methyl)piperidine-3,4,5-triol] |
| < 100 nM | O[C@H]1[C@H](O)[C@@H](O)CN(CC2CCN(c3ccc(C(F)(F)F)cc3)CC2)[C@@H]1CF [Example 155, (2S,3R,4R,5S)-2-(fluoromethyl)-1-((1-(4-(trifluoromethyl)phenyl)piperidin-4-yl)methyl)piperidine-3,4,5-triol] |
| 1000 to 25000 nM | O[C@H]1[C@H](O)[C@@H](O)CN(CCc2ccccc2)[C@@H]1C(F)F [Example 156, (2S,3R,4R,5S)-2-(difluoromethyl)-1-phenethylpiperidine-3,4,5-triol] |
